According to patent US20230038373A1, “STABILE CONJUGATE” (Glykos Biomedical OY, priority 2019, published 2023):
Where “and” joins values, the source holds several entries; their conditions need not be identical. Equal entries are not always repeated.

Key:
[1] = Stability of kifunensine ester compounds in mouse serum (MALDI-TOF MS); assay type: in vitro ADME; conditions: 4 days' incubation in mouse serum at +37° C.
Method: (§1) Serum was obtained from laboratory mice according to ethical permission, or from healthy human volunteers, and prepared with standard procedures. Buffer stability test were performed either in phosphate-buffered saline (PBS, Gibco) or standard cell culture medium recommended for SK-BR-3 cells by the ATCC (about neutral pH). Payload-linker molecules were incubated in serum, buffer or medium, after which the incubation mixture was analyzed by MALDI-TOF MS as described above. […] Similar studies were also conducted with the 33DFTG-ester compounds, further verifying the observation of stabilization by carboxylic acid modifications of the ester against esterase hydrolysis. However, all the kifunensine ester compounds, when applied in 10 μM concentration to SK-BR-3 cell culture for three days, were active in mannosidase I inhibition (as shown by MALDI-TOF MS analysis of neutral N-glycans of the SK-BR-3 cells after the incubation as described below), showing that regardless of the relative protection from serum esterase hydrolysis, the esters could still be hydrolysed in cells to liberate the active payload.

[2] = Stability of kifunensine ester compounds in buffered cell culture medium (MALDI-TOF MS); assay type: physicochemical; conditions: 5 days' incubation in buffered cell culture medium at +37° C.; signal vs hydrolysis product kifunensine
Method: as §1

[3] = system: immature dendritic cells (iDCs) with SK-BR-3 cells; assay: Dendritic cell activation assay (iDC / SK-BR-3 co-culture, fractalkine secretion); assay type: cell-based, human; conditions: 5 nM test compound
From the text: Monocytes were isolated from human peripheral blood (buffy coat) from healthy adult donors (Finnish Red Cross Blood Service) by using magnetic-activated microbead based cell sorting for CD14 positive cells (Miltenyi Biotec). Monocytes were differentiated to immature dendritic cells (iDCs) by using Mo-DC Differentiation Medium (Miltenyi Biotec) according the manufacturer's instructions. On day 6, to analyze cell surface expression of maturation markers, the iDCs were labeled with specific monoclonal antibodies for CD209 (R&D Systems) and CD14 (eBioscience). Nonspecific antibody binding was assessed using appropriate isotype controls. The iDCs were used for co-culture experiment on day 7.
SK-BR-3 cells (ATCC) were cultured in DMEM (Gibco) containing GlutaMAX and supplemented with 10% heat-inactivated fetal bovine serum (FBS, Gibco). SK-BR-3 cells were plated in 96-well plate (5000 c/well) in the presence or absence of […] kifunensine (Carbosynth Limited) and cultured for 5 days. Before start of the co-culture, SK-BR-3 cells were washed twice with RPMI 1640 medium (Gibco). Differentiated iDCs were collected and 0.11×10^6 cells/well were added together with the test compounds to SK-BR-3 cells and cells were incubated for 24 h at +37° C. in 5% CO2. The experiment medium was RPMI 1640 medium (Gibco) containing 10 mM Hepes and 2 mM glutamine and supplemented with 10% FBS (Gibco). All treatments were performed as duplicates. […] Phorbol 12-myristate 13-acetate (PMA, Abcam) was used as positive control. After 24 h co-culture of iDCs and SKBR-3 cells, the cell supernatants were collected and centrifuged (3000 g, 5 min, +4° C.) to remove cells and debris. The supernatants were frozen and subjected to cytokine and chemokine analysis with Human Cytokine 48-Plex Discovery Assay (EVE Technologies, Canada).

processing α-mannosidase [4] = assay: N-glycan profile of JIMT-1 cancer cells after kifunensine or ADC; assay type: cell-based; conditions: JIMT-1 cells, 3-4 days
Method: (§2) JIMT-1 cancer cells (DSMZ-German Collection of Microorganisms and Cell Cultures; variable/medium HER2 expression) and HCC-1954 cancer cells (ATCC; high HER2 expression) were cultured according to the manufacturers' instructions in standard cell culture conditions and incubated for 3-4 days with either […] kifunensine or trastuzumab-kifunensine ADCs. Effect on N-glycan profiles of the cells was analyzed by isolating cellular N-glycans and MALDI-TOF MS as described above.

mannosidase I [5] = assay: N-glycan profiling of SK-BR-3 cells after inhibitor/ADC treatment (mannosidase I inhibition); assay type: cell-based; conditions: 10 μM, 3 days
Method: SK-BR-3 breast cancer cells (ATCC) were cultured in recommended conditions and incubated with glycosylation inhibitors and ADCs for three days. The cells were then subjected to N-glycan profiling with MALDI-TOF MS essentially as described in Leijon et al. 2017, J Clin Endocrinol Metab 102(11):3990-4000, although without the deparaffinization step.

processing α-mannosidase [6] = assay: N-glycan profile of HCC-1954 cancer cells after kifunensine or ADC; assay type: cell-based; conditions: HCC-1954 cells, 3-4 days; 10 pM kifunensine; 10 nM or 100 nM ADC
Method: as §2

[7] = system: B16-F10 melanoma subcutaneous tumor; assay: Syngeneic B16-F10 melanoma subcutaneous tumor model; assay type: in vivo, C57BL/6J mice; conditions: day 15; three 10 mg/kg doses on days 2, 7 and 12 (i.v.; anti-PD-1 i.p.); control group 1534 mm^3
Method: Treatment groups (n=7) were administered with three 10 mg/kg intravenous infusions of antibody or ADC to the tail vein in PBS on days 2, 7 and 12 after subcutaneous inoculation of 0.5 million B16-F10 cells in each mouse. Anti-PD-1 antibody (n=7) was administered by intraperitoneal injection. Control mice (n=5) received no injections. Plotting of the average tumor size was stopped when first mouse in the group was killed due to tumor growth.
Tumor growth was followed by palpation. After caliper measurement, tumor volume was calculated according to 0.5×length×width^2. The first dosings were administered 2 days after inoculation and subsequent doses at 5 days' intervals. Mice were randomly divided into study groups.
The B16-F10 tumor-bearing mice (strain C57BL/6J) were administered as described above with three 10 mg/kg i.v. (intravenous infusion to the tail vein in PBS) doses each of avelumab, avelumab-cyclo-MeMe-kifunensine (DAR=21-28) and avelumab-AANA-kifunensine (DAR=8) as well as with three 10 mg/kg i.p. (intraperitoneal injection in PBS) doses of anti-mouse-PD-1 antibody (InvivoMAb, clone RMP1-14, rat IgG2a kappa). Control mice received no injections. All study groups included 7 tumor-bearing mice while the control group included 5 tumor-bearing mice.

[8] = system: HCC-1954 xenograft tumors; assay: HCC-1954 xenograft: N-glycan profiling of tumors and tissues after ADC dosing; assay type: in vivo, mice (Balb/cAnNRj-Foxn1nu-nu); conditions: three 10 mg/kg i.v. doses, tumors collected on day 8
Method: The study was performed at the TCDM/Central Animal Laboratory, University of Turku, Finland, according to the appropriate ethical committee approval. Cells for inoculation to mice were prepared in vigorous exponential growth phase. 5 million cells in 50% Matrigel were inoculated s.c. to the flank of each mouse. Clinical signs and general behavior of the animals was observed regularly. […] Tumor growth was followed by palpation. After caliper measurement, tumor volume was calculated according to 0.5×length×width^2. The first dosings were administered when average tumor volume reached […]. Mice were evenly divided into study groups so that each group received similar distribution of different-sized tumors and the average tumor volumes were similar in each group. The mice received two additional dosings at 3 days and 6 days after the first dosing. Control mice received no dosings. At the end of the study on day 8 after the first dosing, the mice were sacrificed and representative samples of the tumors, blood (serum), liver, spleen, skin and muscle were taken and frozen for analyses.
Test substances were prepared as described above. […] The samples were subjected to N-glycan profiling with MALDI-TOF MS essentially as described above.

mannosidase I [9] = assay: ADC activity in SK-BR-3 cells after incubation of the ADC in human and mouse sera; assay type: cell-based; conditions: 7 days' incubation in both human and mouse sera, then 10 nM in SK-BR-3 culture for three days
[10] = SK-BR-3 + iDCs 24 h co-culture, SK-BR-3 pretreated with 10 pM kifunensine for 5 days

CC(C)(C)C(=O)OC[C@@H]1[C@@H](O)[C@H](O)[C@H](O)[C@H]2NC(=O)C(=O)N12 [6-(2,2-dimethyl)propanoyl-kifunensine, 9-(2,2-dimethylpropionyl)-kifunensine ester]
compound detected after incubation in mouse serum (ester hydrolysis) [1]: still present
stability against chemical hydrolysis in neutral pH [2]: reasonably stable

CC[C@H](C)C(=O)OC[C@@H]1[C@@H](O)[C@H](O)[C@H](O)[C@H]2NC(=O)C(=O)N12 [6-(2-methyl)butanoyl-kifunensine, 9-(2-methylbutanoyl)-kifunensine ester]
compound detected after incubation in mouse serum (ester hydrolysis) [1]: not detected on day 4
stability against chemical hydrolysis in neutral pH [2]: reasonably stable

CCCC(=O)OC[C@@H]1[C@@H](O)[C@H](O)[C@H](O)[C@H]2NC(=O)C(=O)N12 [6-butanoyl-kifunensine, 9-butanoyl-kifunensine ester]
compound detected after incubation in mouse serum (ester hydrolysis) [1]: not detected on day 4
stability against chemical hydrolysis in neutral pH [2]: reasonably stable

O=C(O)CCC(=O)OC[C@@H]1[C@@H](O)[C@H](O)[C@H](O)[C@H]2NC(=O)C(=O)N12 [6-succinyl-kifunensine, 9-succinyl-kifunensine]
compound detected after incubation in mouse serum (ester hydrolysis) [1]: still present
stability against chemical hydrolysis in neutral pH [2]: reasonably stable

CCCCCCCCCCCCCC(=O)O[C@@H]1[C@@H](C)[C@@]2(O)[C@@H](C=C(CO)C[C@]3(O)C(=O)C(C)=C[C@@H]23)[C@@H]2C(C)(C)[C@]12OC(C)=O [PMA, Phorbol 12-myristate 13-acetate]
Fractalkine [3, 10]: 158.90 pg/mL
Fractalkine ([3]; SK-BR-3 + iDCs 24 h co-culture, without kifunensine pretreatment): 45.18 pg/mL
Fractalkine ([3]; iDCs without SK-BR-3 cells): 8.27 pg/mL

O=C1N[C@@H]2[C@@H](O)[C@@H](O)[C@H](O)[C@@H](CO)N2C1=O [kifunensine]
N-glycan profile change (Man9 increase, complex-type decrease) relative to HCC-1954 cells (processing α-mannosidase [4]): less intensive
Fractalkine [3, 10]: 121 pg/mL and 120.94 pg/mL
average number of mannose residues (Man) in the Man5-9GlcNAc2 glycan signal series (mannosidase I [5]): over 8.5
relative proportion of complex-type N-glycans (processing α-mannosidase [6]): drastically diminished

avelumab: recombinant fully human IgG1 anti-PD-L1 antibody (Bavencio)
average tumor volume [7]: 472 mm^3

trastuzumab-[DBCO-PEG4-(octakis-amino)-γ-cyclodextrin-(9-(di-3-thio-propanoyl)-kifunensine)7]4 [trastuzumab-cyclo-kifunensine]
average mannose residues (Man) in the Man5-9GlcNAc2 glycan signal series of tumors [8]: 7.36
proportion of complex-type N-glycans in the tumors [8]: 11%
proportion of high-mannose type N-glycans of the total neutral N-glycans in the tumors [8]: 78%
reduction of activity after serum incubation (mannosidase I [9]): over 50%

trastuzumab-[GalNAz-DBCO-PEG4-(octakis-amino)-γ-cyclodextrin-(9-(4-methyl-4-thio-butanoyl-3-thiopropanoyl)-kifunensine)7]4 [trastuzumab-cyclo-Me-kifunensine]
N-glycan profile change (Man9 increase, complex-type decrease) relative to HCC-1954 cells (processing α-mannosidase [4]): less intensive
average mannose residues (Man) in the Man5-9GlcNAc2 glycan signal series of tumors [8]: 7.40
proportion of complex-type N-glycans in the tumors [8]: 10%
proportion of high-mannose type N-glycans of the total neutral N-glycans in the tumors [8]: 80%
relative proportion of complex-type N-glycans (processing α-mannosidase [6]): drastically diminished
